# Experimental data published in US20230131427A1, “FUNGICIDAL COMPOSITIONS” (SYNGENTA CROP PROTECTION AG, priority 2020, published 2023).
# Where “and” joins values, the source holds several entries; their conditions need not be identical. Equal entries are not always repeated. Where two headings read alike, the source gives them in different places.
# Legend:
# Septoria tritici = assay: Example B3: mixtures, preventative activity against Septoria tritici (leaf blotch), liquid culture; assay type: cell-based; settings: component A alone; for inhibition at 0.003125 ppm / inhibition at 0.00625 ppm / inhibition at 0.03 ppm: Zymoseptoria tritici; for inhibition at 0.03 ppm: read-out: Activity (%) A
# How it was run: (§1)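 Fungal conidia mixed into potato dextrose broth were added to test compounds or mixtures in DMSO in microtiter wells. Fungicidal activity was scored on a 100-0 scale (100 = no disease growth; 0 = well fully covered by mycelium). Synergy was assessed by the Colby formula, comparing observed (O) with expected (E) action.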
# [1] = tested on: Glomerella lagenarium syn. Colletotrichum lagenarium; assay: Example B1: mixtures, preventative activity against Glomerella lagenarium syn. Colletotrichum lagenarium, liquid culture; assay type: cell-based; settings: Colletotrichum orbiculare; component A alone, 0.03 ppm
# How it was run: as §1
# [2] = tested on: Puccinia recondita f. sp. tritici; assay: Puccinia recondita f. sp. tritici / wheat / leaf disc preventative (brown rust); assay type: in vivo; settings: foliar, vs untreated control
# Procedure: (§2) Leaf disks or leaf segments of various plant species are cut from plants grown in a greenhouse. The cut leaf disks or segments are placed in multiwell plates (24-well format) onto water agar. The leaf disks are sprayed with a test solution before (preventative) or after (curative) inoculation. Compounds to be tested are prepared as DMSO solutions (max. 10 mg/mL) which are diluted to the appropriate concentration with 0.025% Tween20 just before spraying. The inoculated leaf disks or segments are incubated under defined conditions (temperature, relative humidity, light, etc.) according to the respective test system. A single evaluation of disease level is carried out 3 to 14 days after inoculation, depending on the pathosystem. Percent disease control relative to the untreated check leaf disks or segments is then calculated.
# Wheat leaf segments cv. Kanzler are placed on agar in multiwell plates (24-well format) and sprayed with the formulated test compound diluted in water. The leaf disks are inoculated with a spore suspension of the fungus 1 day after application. The inoculated leaf segments are incubated at 19° C. and 75% rh under a light regime of 12 h light/12 h darkness in a climate cabinet and the activity of a compound is assessed as percent disease control compared to untreated when an appropriate level of disease damage appears in untreated check leaf segments (7-9 days after application).
# [3] = tested on: Puccinia recondita f. sp. tritici; assay: Puccinia recondita f. sp. tritici / wheat / leaf disc curative (brown rust); assay type: in vivo; settings: foliar, vs untreated control
# Procedure: Leaf disks or leaf segments of various plant species are cut from plants grown in a greenhouse. The cut leaf disks or segments are placed in multiwell plates (24-well format) onto water agar. The leaf disks are sprayed with a test solution before (preventative) or after (curative) inoculation. […] The inoculated leaf disks or segments are incubated under defined conditions (temperature, relative humidity, light, etc.) according to the respective test system. […] Percent disease control relative to the untreated check leaf disks or segments is then calculated. Wheat leaf segments cv. Kanzler are placed on agar in multiwell plates (24-well format). The leaf segments are inoculated with a spore suspension of the fungus. […] The formulated test compound diluted in water is applied 1 day after inoculation.
# Phakopsora pachyrhizi [4] = assay: Phakopsora pachyrhizi / soybean / leaf disc preventative (Asian soybean rust); assay type: in vivo; settings: foliar, 288 h, vs untreated control
# Procedure: as §2
# Soybean leaf disks are placed on agar in multiwell plates (24-well format) and sprayed with test solutions. After drying, the leaf disks are inoculated with a spore suspension of the fungus. After appropriate incubation the activity of a compound is assessed approx.12 dpi (days after inoculation) as preventive fungicidal activity.
# Septoria glycines = assay: Example B2: mixtures, preventative activity against Septoria glycines (brown spot), liquid culture; assay type: cell-based; settings: Septoria glycines, component A alone
# How it was run: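 Conidia from fresh culture mixed into potato dextrose broth and added to test compounds in DMSO in 96-well plates. Growth inhibition scored 100-0 (100 = no growth; 0 = well covered by mycelium); synergy of mixtures judged by Colby expected-action (O-E).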
# [5] = tested on: Glomerella lagenarium (Colletotrichum lagenarium); assay: Glomerella lagenarium (Colletotrichum lagenarium) liquid culture / cucumber / preventative (anthracnose); assay type: cell-based; settings: Colletotrichum orbiculare, vs untreated control
# Procedure: Mycelia fragments or conidia suspensions of a fungus prepared either freshly from liquid cultures of the fungus or from cryogenic storage, are directly mixed into nutrient broth. DMSO solutions of the test compound (max. 10 mg/mL) are diluted with 0.025% Tween20 by a factor of 50 and 10 μl of this solution is pipetted into a microtiter plate (96-well format). The nutrient broth containing the fungal spores/mycelia fragments is then added to give an end concentration of the tested compound. The test plates are incubated in the dark at 24° C. and 96% relative humidity. The inhibition of fungal growth is determined photometrically after 2 to 7 days, depending on the pathosystem, and percent antifungal activity relative to the untreated check is calculated.
# Conidia of the fungus from cryogenic storage are directly mixed into nutrient broth (PDB potato dextrose broth). After placing a (DMSO) solution of test compound into a microtiter plate (96-well format), the nutrient broth containing the fungal spores is added.
# [6] = tested on: Mycosphaerella arachidis syn. Cercospora arachidicola; assay: Example B4: mixtures, preventative activity against Mycosphaerella arachidis syn. Cercospora arachidicola (brown leaf spot of peanut), liquid culture; assay type: cell-based; settings: Mycosphaerella arachidis, component A alone
# From the text: This occurs whenever the action of an active ingredient combination is greater than the sum of the actions of the individual components. The action to be expected E for a given active ingredient combination obeys the so-called COLBY formula and can be calculated as follows (COLBY, S. R. “Calculating synergistic and antagonistic responses of herbicide combination”. Weeds, Vol. 15, pages 20-22; 1967):
# If the action actually observed (O) is greater than the expected action (E), then the action of the combination is super-additive, i.e. there is a synergistic effect. In mathematical terms, synergism corresponds to a positive value for the difference of (O-E). In the case of purely complementary addition of activities (expected activity), said difference (O-E) is zero. A negative value of said difference (O-E) signals a loss of activity compared to the expected activity.
# Conidia of the fungus from cryogenic storage were directly mixed into nutrient broth (PDB potato dextrose broth). A DMSO solution of the test compounds was placed into a microtiter plate (96-well format) and the nutrient broth containing the fungal spores was added to it.
# Cercospora arachidicola (Brown leaf spot of peanut). Fungicidal activity was evaluated on a 100-0 scale (100=no disease growth; 0=well completely covered by mycelium).
# Phakopsora pachyrhizi [7] = assay: Example B5: preventative activity against Phakopsora pachyrhizi (soybean rust), whole soybean plants sprayed, leaf disks inoculated; assay type: in vivo
# How it was run: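 Soybean plants sprayed 4 weeks after planting at rates in g a.i./ha; leaf disks from the first trifoliate cut 1 day later and inoculated with rust, five repetitions per rate. Scored 11–14 days post-inoculation relative to untreated infested check (100 = no disease, 0 = heavy infestation).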
# [8] = Phakopsora pachyrhizi, foliar, applied alone, 9 g/ha, read-out: Observed Activity (% of untreated) against Phakopsora pachyrhizi
melting point [°C],Compound,inhibition at 0.03 ppm [1] [%],pest or weed control at 200 ppm [2] [%],pest or weed control at 200 ppm [3] [%],pest or weed control at 67 ppm (Phakopsora pachyrhizi [4]) [%],inhibition at 0.003125 ppm (Septoria glycines; 100-0 scale) [%],inhibition at 0.00625 ppm (Septoria glycines; 100-0 scale) [%],inhibition of growth at 6.7 ppm [5] [%],inhibition at 0.003125 ppm [6] [%],inhibition at 0.00625 ppm [6] [%],"inhibition at 0.00625 ppm (Septoria tritici; 0.00625 ppm, 100-0 scale) [%]",inhibition at 9 g/ha (Phakopsora pachyrhizi [7]; [8]) [%],"Observed Activity (% of untreated) against Phakopsora pachyrhizi (Phakopsora pachyrhizi [7]; applied alone, 2.25 g/ha)","Observed Activity (% of untreated) against Phakopsora pachyrhizi (Phakopsora pachyrhizi [7]; applied alone, 4.5 g/ha)",other results
107 to 109,"CO/C=C(\Oc1cc(-n2ncc(C(F)(F)F)n2)ccc1C)C(=O)OC [X.10, methyl (Z)-3-methoxy-2-[2-methyl-5-[4-(trifluoromethyl)triazol-2-yl]phenoxy]prop-2-enoate]",0,≥ 80,≥ 80,≥ 80,70,90,≥ 80,70,90,–,–,–,–,"inhibition at 0.003125 ppm (Septoria tritici; 72 h, 0.003125 ppm): 70%; inhibition at 0.00625 ppm (Septoria tritici; 72 h, 0.00625 ppm): 90%; inhibition at 0.03 ppm (Septoria tritici; 72 h, 72 hrs): 0%; inhibition at 0.03 ppm (Septoria glycines; 0.03 ppm, 100-0 scale, read-out: Activity (%) A): 0%; inhibition at 0.03 ppm ([6]; 0.03 ppm): 0%"
91 to 94,"CCCc1ccn(-c2ccc(C)c(O/C(=C\OC)C(=O)OC)c2)n1 [X.01, methyl (Z)-3-methoxy-2-[2-methyl-5-(3-propylpyrazol-1-yl)phenoxy]prop-2-enoate]",70,≥ 80,≥ 80,≥ 80,–,–,≥ 80,0,20,50,85,24% and 31%,69% and 64%,"inhibition at 0.003125 ppm (Septoria tritici; 0.003125 ppm, 100-0 scale): 20%; Activity (%) A (Septoria tritici; 0.00625 ppm, 100-0 scale): 70%; inhibition at 0.003125 ppm (Septoria glycines): 20%; inhibition at 0.00625 ppm (Septoria glycines): 70%; inhibition at 9 g/ha (Phakopsora pachyrhizi [7]; Phakopsora pachyrhizi, foliar, active ingredient alone, 9 g/ha, read-out: Observed Activity (%) (% of untreated)): 78%; inhibition at 18 g/ha (Phakopsora pachyrhizi [7]; Phakopsora pachyrhizi, foliar, active ingredient alone, 18 g/ha, read-out: Observed Activity (%) (% of untreated)): 85%; Observed Activity (%) (% of untreated) (Phakopsora pachyrhizi [7]; active ingredient alone, 4.5 g/ha): 61% and 87% and 82% and 69%; Observed Activity (%) (% of untreated) (Phakopsora pachyrhizi [7]; active ingredient alone, 9 g/ha): 94% and 90%; Observed Activity (%) (% of untreated) (Phakopsora pachyrhizi [7]; active ingredient alone, 18 g/ha): 97%"
88 to 91,"CO/C=C(\Oc1cc(-n2ccc(C(C)C)n2)ccc1C)C(=O)OC [X.06, methyl (Z)-2-[5-(3-isopropylpyrazol-1-yl)-2-methyl-phenoxy]-3-methoxy-prop-2-enoate]",20,≥ 80,≥ 80,≥ 80,0,50,≥ 80,20,50,50,97,13% and 9%,61% and 48% and 73%,"inhibition at 0.03 ppm (Septoria tritici; 100-0 scale): 70%; Activity (%) A (Septoria tritici; 0.003125 ppm, 100-0 scale): 0%; inhibition at 0.025 ppm (Septoria glycines; 0.025 ppm, 100-0 scale): 90%; inhibition at 2.25 g/ha (Phakopsora pachyrhizi [7]; Phakopsora pachyrhizi, foliar, applied alone, 2.25 g/ha, read-out: Observed Activity (% of untreated) against Phakopsora pachyrhizi): 10%; inhibition at 18 g/ha (Phakopsora pachyrhizi [7]; Phakopsora pachyrhizi, foliar, applied alone, 18 g/ha, read-out: Observed Activity (% of untreated) against Phakopsora pachyrhizi): 97%; Observed Activity (%) (% of untreated) against Phakopsora pachyrhizi (Phakopsora pachyrhizi [7]; applied alone, 2.25 g/ha): 71%; Observed Activity (%) (% of untreated) against Phakopsora pachyrhizi (Phakopsora pachyrhizi [7]; applied alone, 4.5 g/ha): 94%; Observed Activity (% of untreated) against Phakopsora pachyrhizi (Phakopsora pachyrhizi [7]; applied alone, 9 g/ha): 81% and 93%"
